From US10414769B2, “5,8-dimethyl-9-phenyl-5,8-dihydro-6H-pyrazolo[3,4-h]quinazolin-2-yl)-(1H-pyrazol-3-yl)-amines as IGF-1R/IR inhibitors” (Boehringer Ingelheim International GmbH, priority 2015, dated 2019)

Experiments:
[1] = test system: HCT 116 (colorectal carcinoma) cells; test: Cell proliferation assay HCT 116 (Alamar Blue); format: cell-based; details: Homo sapiens; anti-proliferative effect, HCT 116 cells (negative control line), 72 h
Experimental: Cell Proliferation Assays
Compounds were tested for their anti-proliferative effects in the TC-71 (EWING'S sarcoma) and HCT 116 (colorectal carcinoma) cancer cell lines in vitro. Published scientific data has described that interference with the IGF-1R signaling pathway reduces the proliferation of TC-71 cells (Manara et al, 2007). Therefore TC-71 cells served as a positive control cell line for monitoring the activity of compounds against IGF-1R-mediated cell proliferation. […] Therefore the HCT 116 cell line served as a negative control.
2000 TC-71 cells or 1000 HCT 116 cells were seeded per well in 180 μL IMDM+10% foetal calf serum (FCS)+penicillin/streptomycin into 96-well microtitre plates. The plates were placed in a cell culture incubator (37° C. in a humidified atmosphere of […]/5% CO2) overnight. The following day, serial dilutions of compounds, prepared in duplicates, were transferred onto the cell layers (controls without compound). The cells were cultivated for a further 72 h in the cell culture incubator. 20 μL of Alamar Blue™ (Serotec Ltd, Dusseldorf, Germany) was added to each well and the plates incubated for 7 h in the cell culture incubator. Fluorescence (extinction wavelength of 544 nm and emission at 590 nm) was then measured and the normalized data fitted by iterative calculation with a sigmoidal curve analysis program (Graph Pad Prism) with a variable Hill slope to determine the EC50 values.

[2] = biological target: T1, TBK1 (Homo sapiens, UniProt Q9UHD2); test: Z'-LYTE kinase selectivity assay TBK1; format: biochemical
T1 construct: purchased Life Technologies PV 3504
T1 sequence (Q9UHD2 1-729): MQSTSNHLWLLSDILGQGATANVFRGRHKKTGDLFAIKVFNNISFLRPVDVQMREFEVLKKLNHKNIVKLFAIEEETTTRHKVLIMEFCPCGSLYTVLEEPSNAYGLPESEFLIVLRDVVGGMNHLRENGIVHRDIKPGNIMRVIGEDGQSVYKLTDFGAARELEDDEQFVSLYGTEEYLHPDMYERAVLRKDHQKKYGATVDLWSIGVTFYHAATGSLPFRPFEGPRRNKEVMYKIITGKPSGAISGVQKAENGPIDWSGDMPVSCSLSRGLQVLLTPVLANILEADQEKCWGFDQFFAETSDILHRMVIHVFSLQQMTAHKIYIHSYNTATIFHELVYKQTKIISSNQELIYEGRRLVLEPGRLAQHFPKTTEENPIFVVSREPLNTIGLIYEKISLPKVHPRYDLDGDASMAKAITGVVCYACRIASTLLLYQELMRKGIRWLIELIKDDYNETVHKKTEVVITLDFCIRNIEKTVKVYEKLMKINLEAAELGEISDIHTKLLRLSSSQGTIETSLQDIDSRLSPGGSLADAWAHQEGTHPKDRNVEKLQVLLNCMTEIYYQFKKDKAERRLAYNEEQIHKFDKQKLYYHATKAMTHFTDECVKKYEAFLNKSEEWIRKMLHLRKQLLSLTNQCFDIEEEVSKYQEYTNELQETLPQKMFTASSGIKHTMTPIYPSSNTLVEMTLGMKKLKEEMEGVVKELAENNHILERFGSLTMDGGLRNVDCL
Excerpt: (§1) In order to compare the kinase selectivity of compounds (I) according to the invention with known prior art compounds the commercially provided SelectScreen® Kinase Profiling Service (Z′-LYTE®) was used (Life Technologies GmbH, Darmstadt, Germany) to investigate the ability of the compounds to inhibit a number of different, representatively selected human kinases. Further details regarding this service are available on the Life Technologies website at
(§2) The Z′-LYTE® biochemical assay employs a fluorescence-based, coupled-enzyme format and is based on the differential sensitivity of phosphorylated and non-phosphorylated peptides to proteolytic cleavage. The peptide substrate is labeled with two fluorophores—one at each end—that make up a FRET pair.
(§3) In the primary reaction, the kinase transfers the gamma-phosphate of ATP to a single tyrosine, serine or threonine residue in a synthetic FRET-peptide. In the secondary reaction, a site-specific protease recognizes and cleaves non-phosphorylated FRET-peptides. Phosphorylation of FRET-peptides suppresses cleavage by the Development Reagent. Cleavage disrupts FRET between the donor (i.e., coumarin) and acceptor (i.e., fluorescein) fluorophores on the FRET-peptide, whereas uncleaved, phosphorylated FRET-peptides maintain FRET. A ratiometric method, which calculates the ratio (the Emission Ratio) of donor emission to acceptor emission after excitation of the donor fluorophore at 400 nm, is used to quantitate reaction progress, as shown in the equation below.
(§4) The Test Compounds are screened at 1 μM.
The 2×TBK1 (# PV 3504)/Ser/Thr 05 (Z′-LYTE® Kinase Assay Kit—Ser/Thr 5 Peptide, # PV 3178) mixture is prepared in 50 mM HEPES pH 7.5, 0.01% BRIJ-35, 10 mM MgCl2, 1 mM EGTA. The final 10 μL Kinase Reaction consists of 0.7-9.72 ng TBK1 and 2 μM Ser/Thr 05 in 50 mM HEPES pH 7.5, 0.01% BRIJ-35, 10 mM MgCl2, 1 mM EGTA. After the 1 hour Kinase Reaction incubation, 5 μL of a 1:64 dilution of Development Reagent B is added.

[3] = biological target: T2, MAPK14 (p38 alpha) (Homo sapiens, UniProt Q16539); test: Z'-LYTE kinase selectivity assay MAPK14; format: biochemical
T2 construct: purchased Life Technologies PV 3304
Excerpt: as §1, §2, §3, §4
(§5) After the 1 hour Kinase Reaction incubation, 5 μL of a 1:1024 dilution of Development Reagent A is added.

[4] = biological target: T3, MAP2K1 (MEK1) (Homo sapiens, UniProt Q02750); test: Z'-LYTE kinase selectivity assay MAP2K1; format: biochemical
T3 construct: purchased Life Technologies PV 3303
Excerpt: as §1, §2, §3, §4, §5

[5] = biological target: T4, CSNK1A1 (CK1 alpha 1) (Homo sapiens, UniProt P48729); test: Z'-LYTE kinase selectivity assay CSNK1A1; format: biochemical
T4 construct: purchased Life Technologies PV 3850
Excerpt: as §1, §2, §3, §4
The 2×CSNK1A1 (CK1 alpha 1) (# PV 3850)/Ser/Thr 11 (Z′-LYTE® Kinase Assay Kit—Ser/Thr 11 Peptide, # PV 3670) mixture is prepared in 50 mM HEPES pH 7.5, 0.01% BRIJ-35, 10 mM MgCl2, 1 mM EGTA, 2 mM DTT. The final 10 μL Kinase Reaction consists of 2.6-13.5 ng CSNK1A1 (CK1 alpha 1) and 2 μM Ser/Thr 11 in 50 mM HEPES pH 7.5, 0.01% BRIJ-35, 10 mM MgCl2, 1 mM EGTA, 1 mM DTT. After the 1 hour Kinase Reaction incubation, 5 μL of a 1:16 dilution of Development Reagent B is added.

T2 sequence (Q16539 whole entry): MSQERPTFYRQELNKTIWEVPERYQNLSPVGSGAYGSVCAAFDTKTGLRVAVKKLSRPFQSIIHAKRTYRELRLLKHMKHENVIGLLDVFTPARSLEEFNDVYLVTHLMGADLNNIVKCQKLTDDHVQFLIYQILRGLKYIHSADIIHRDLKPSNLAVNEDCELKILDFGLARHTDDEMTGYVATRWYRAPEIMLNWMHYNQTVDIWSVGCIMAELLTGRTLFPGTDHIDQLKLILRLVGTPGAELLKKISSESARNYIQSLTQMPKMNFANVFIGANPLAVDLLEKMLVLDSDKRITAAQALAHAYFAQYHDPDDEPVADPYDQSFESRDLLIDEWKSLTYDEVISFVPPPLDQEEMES
T3 sequence (Q02750 whole entry): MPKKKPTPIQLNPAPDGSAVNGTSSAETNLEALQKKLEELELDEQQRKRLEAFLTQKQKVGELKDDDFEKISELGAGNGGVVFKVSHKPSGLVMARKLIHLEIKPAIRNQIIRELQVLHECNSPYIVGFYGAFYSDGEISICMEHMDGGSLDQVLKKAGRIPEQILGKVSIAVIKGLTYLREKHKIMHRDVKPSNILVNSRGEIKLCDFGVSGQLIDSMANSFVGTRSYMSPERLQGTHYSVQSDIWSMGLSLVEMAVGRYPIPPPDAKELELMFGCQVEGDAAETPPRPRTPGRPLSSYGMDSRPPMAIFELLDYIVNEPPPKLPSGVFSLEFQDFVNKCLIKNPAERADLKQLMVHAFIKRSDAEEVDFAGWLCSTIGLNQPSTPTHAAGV
T4 sequence (P48729 whole entry): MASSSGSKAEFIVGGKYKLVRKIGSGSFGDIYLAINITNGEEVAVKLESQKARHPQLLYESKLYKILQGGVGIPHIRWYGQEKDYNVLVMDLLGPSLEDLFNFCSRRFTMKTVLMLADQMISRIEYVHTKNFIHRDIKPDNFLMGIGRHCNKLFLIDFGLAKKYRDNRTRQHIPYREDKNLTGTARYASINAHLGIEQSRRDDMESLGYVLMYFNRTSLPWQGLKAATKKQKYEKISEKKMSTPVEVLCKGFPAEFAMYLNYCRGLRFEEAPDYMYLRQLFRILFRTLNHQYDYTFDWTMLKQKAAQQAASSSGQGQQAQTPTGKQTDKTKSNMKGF

Row | SMILES | EC50 [1] | inhibition at 1 µM [2] | inhibition at 1 µM [3] | inhibition at 1 µM [4] | inhibition at 1 µM [5]
1 | C[C@@H]1Cc2nn(C)c(-c3ccccc3)c2-c2nc(Nc3ccn(CCN4CCN(CC(=O)OC5CCOCC5)CC4)n3)ncc21 [Compound I-8] | > 2500 nM | 46% | -5% | 48% | 38%
2 | C[C@@H]1Cc2nn(C)c(-c3ccccc3)c2-c2nc(Nc3ccn(CCN4CCN(CC5CCCO5)CC4)n3)ncc21 (some centres unmarked) [Compound I-9] | > 2500 nM | 57% | 4% | 36% | 37%
3 | C[C@@H]1Cc2nn(C)c(-c3ccccc3)c2-c2nc(Nc3ccn(CCN4CCOCC4)n3)ncc21 [Compound I-2] | > 2500 nM | 48% | 7% | 58% | 49%

More lines, now with the values ahead:

Row | EC50 [1] | inhibition at 1 µM [2] | inhibition at 1 µM [3] | inhibition at 1 µM [4] | inhibition at 1 µM [5] | SMILES
4 | 1840 nM | 49% | 2% | 40% | 29% | CC(O)CN1CCN(CCn2ccc(Nc3ncc4c(n3)-c3c(nn(C)c3-c3ccccc3)C[C@H]4C)n2)CC1 (some centres unmarked) [Compound I-7]
5 | > 2500 nM | 33% | 1% | 39% | 17% | COCCN1CCN(CCn2ccc(Nc3ncc4c(n3)-c3c(nn(C)c3-c3ccccc3)C[C@H]4C)n2)CC1 [Compound I-11]
6 | 2000 nM | 51% | 2% | 50% | 37% | C[C@@H]1Cc2nn(C)c(-c3ccccc3)c2-c2nc(Nc3ccn(CCN4CCN(CC(C)(C)O)CC4)n3)ncc21 [Compound I-3]
7 | > 2500 nM | 38% | -5% | 34% | 16% | C[C@@H]1Cc2nn(C)c(-c3ccccc3)c2-c2nc(Nc3ccn(CCN4CCN(C)CC4)n3)ncc21 [Compound I-1]
